Tested on: dendritic cells
Assay: Dendritic cell maturation (CCR7 expression by flow cytometry) in co-culture with untreated or irradiated cancer cells
Format: cell-based
Details: DCs cultured with untreated (0Gy) or irradiated (8Gy) cancer cells; 0, 50 or 100 micromolar FCA; flow cytometry 24 hours after culturing
Experimental: FIG. 4 depicts CCR7 expression in DCs that were cultured with cancer cells, where the cancer cells were untreated (0Gy) or irradiated (8Gy). These co-cultures were treated with 0, 50, or 100 micromolar Fmoc-d-cyclohexylalanine (FCA) to inhibit DNAse1L3.
Dendritic cells were cultured (with untreated or irradiated cancer cells) and treated with increasing doses of FCA, an inhibitor of DNAse1L3 (FIG. 4). Cancer cells were co-cultured with dendritic cells and were treated with 0, 50, or 100 micromolar Fmoc-d-cyclohexylalanine (FCA) to inhibit DNAse1L3.
CCR7 expression on DCs was assessed by flow cytometry 24 hours after culturing.

O=C(N[C@H](CC1CCCCC1)C(=O)O)OCC1c2ccccc2-c2ccccc21 [FCA, Fmoc-d-cyclohexylalanine]
dendritic cell maturation assessed by upregulation of markers including CCR7: stimulates DC maturation

From US12336973B2, “Cancer therapeutic compositions and methods targeting DNAse1L3” (Providence Health & Services—Oregon, priority 2020, dated 2025)
